Measured values as given in ChEMBL document CHEMBL1201862, “PubChem BioAssay data set” (2004).
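Exposure lasted 48 hours, with cells grown in 96-well plates and compounds tested at five concentrations. The concentration for 50% growth inhibition is given as GI50.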 Calls of active or inactive are those of the source. Rule as the data show it: active = GI50 up to about 1.1 µM and inactive = higher.

Tests used:
Test in all cases: NCI-60 cell line screen, 48 h
T47D = system: T47D
SK-MEL-2 = system: SK-MEL-2
UO-31 = system: UO-31
NCI-H522 = system: NCI-H522
COLO 205 = system: COLO 205
ACHN = system: ACHN
DU-145 = system: DU-145
SK-OV-3 = system: SK-OV-3
A549 = system: A549
SNB-75 = system: SNB-75
NCI-H23 = system: NCI-H23
NCI-H226 = system: NCI-H226
LOX IMVI = system: LOX IMVI
SK-MEL-28 = system: SK-MEL-28
NCI/ADR-RES = system: NCI/ADR-RES
NCI-H460 = system: NCI-H460
SK-MEL-5 = system: SK-MEL-5
TK-10 = system: TK-10
OVCAR-4 = system: OVCAR-4
PC-3 = system: PC-3
MDA-MB-231 = system: MDA-MB-231
Malme-3M = system: Malme-3M
HT-29 = system: HT-29
OVCAR-8 = system: OVCAR-8
HCC 2998 = system: HCC 2998
SF-539 = system: SF-539
RXF 393 = system: RXF 393
OVCAR-3 = system: OVCAR-3
RPMI-8226 = system: RPMI-8226
SF-268 = system: SF-268
HCT-116 = system: HCT-116
Hs-578T = system: Hs-578T
HCT-15 = system: HCT-15
MDA-N = system: MDA-N
SNB-19 = system: SNB-19
SF-295 = system: SF-295
KM12 = system: KM12
MOLT-4 = system: MOLT-4
HOP-62 = system: HOP-62
MDA-MB-435 = system: MDA-MB-435
CCRF-CEM = system: CCRF-CEM
CAKI-1 = system: CAKI-1
SW-620 = system: SW-620
M14 = system: M14
SN12C = system: SN12C
IGROV-1 = system: IGROV-1
MCF7 = system: MCF7
A498 = system: A498
OVCAR-5 = system: OVCAR-5
UACC-62 = system: UACC-62
SR = system: SR
K562 = system: K562
HL-60 = system: HL-60
EKVX = system: EKVX
U-251 = system: U-251
BT-549 = system: BT-549
786-0 = system: 786-0
HOP-92 = system: HOP-92
UACC-257 = system: UACC-257

Which results are given for `c1ccc(C(NC2=NCCO2)c2ccccc2)cc1`?
GI50 (T47D): > 10 µM (inactive); GI50 (SK-MEL-2): > 10 µM (inactive); GI50 (UO-31): > 10 µM (inactive); GI50 (NCI-H522): > 10 µM (inactive); GI50 (COLO 205): > 10 µM (inactive); GI50 (ACHN): > 10 µM (inactive); GI50 (DU-145): > 10 µM (inactive); GI50 (SK-OV-3): > 10 µM (inactive); GI50 (A549): > 10 µM (inactive); GI50 (SNB-75): > 10 µM (inactive); GI50 (NCI-H23): > 10 µM (inactive); GI50 (NCI-H226): > 10 µM (inactive); GI50 (LOX IMVI): > 10 µM (inactive); GI50 (SK-MEL-28): > 10 µM (inactive); GI50 (NCI/ADR-RES): > 10 µM (inactive); GI50 (NCI-H460): > 10 µM (inactive); GI50 (SK-MEL-5): > 10 µM (inactive); GI50 (TK-10): > 10 µM (inactive); GI50 (OVCAR-4): > 10 µM (inactive); GI50 (PC-3): > 10 µM (inactive); GI50 (MDA-MB-231): > 10 µM (inactive); GI50 (Malme-3M): > 10 µM (inactive); GI50 (HT-29): > 10 µM (inactive); GI50 (OVCAR-8): > 10 µM (inactive); GI50 (HCC 2998): > 10 µM (inactive); GI50 (SF-539): > 10 µM (inactive); GI50 (RXF 393): > 10 µM (inactive); GI50 (OVCAR-3): > 10 µM (inactive); GI50 (RPMI-8226): > 10 µM (inactive); GI50 (SF-268): > 10 µM (inactive); GI50 (HCT-116): > 10 µM (inactive); GI50 (Hs-578T): > 10 µM (inactive); GI50 (HCT-15): > 10 µM; GI50 (MDA-N): > 10 µM (inactive); GI50 (SNB-19): > 10 µM (inactive); GI50 (SF-295): 9.33 µM (inactive); GI50 (KM12): > 10 µM (inactive); GI50 (MOLT-4): > 10 µM (inactive); GI50 (HOP-62): > 10 µM (inactive); GI50 (MDA-MB-435): > 10 µM (inactive); GI50 (CCRF-CEM): > 10 µM (inactive); GI50 (CAKI-1): > 10 µM (inactive); GI50 (SW-620): > 10 µM (inactive); GI50 (M14): > 10 µM (inactive); GI50 (SN12C): > 10 µM (inactive); GI50 (IGROV-1): > 10 µM (inactive); GI50 (MCF7): 6 µM (inactive); GI50 (A498): 5.75 µM (inactive); GI50 (OVCAR-5): > 10 µM (inactive); GI50 (UACC-62): > 10 µM (inactive); GI50 (SR): > 10 µM (inactive); GI50 (K562): > 10 µM (inactive); GI50 (HL-60): > 10 µM (inactive); GI50 (EKVX): > 10 µM (inactive); GI50 (U-251): > 10 µM (inactive)

Which results are given for `O=C(/C=N/O)c1c(-c2ccccc2)[nH]c(-c2ccccc2)c1-c1ccccc1`?
GI50 (T47D): 17.1 µM (inactive); GI50 (SK-MEL-2): 11.1 µM (inactive); GI50 (UO-31): 14.3 µM (inactive); GI50 (NCI-H522): 13.8 µM (inactive); GI50 (COLO 205): 17.2 µM (inactive); GI50 (ACHN): 16 µM (inactive); GI50 (DU-145): 0.927 µM (active); GI50 (SK-OV-3): 16.1 µM (inactive); GI50 (A549): 14.1 µM (inactive); GI50 (BT-549): < 0.01 µM (active); GI50 (SNB-75): 18.3 µM (inactive); GI50 (NCI-H23): 7.46 µM (inactive); GI50 (NCI-H226): 26.2 µM (inactive); GI50 (LOX IMVI): 10.8 µM (inactive); GI50 (SK-MEL-28): 17.8 µM (inactive); GI50 (NCI/ADR-RES): 6.78 µM (inactive); GI50 (NCI-H460): 16.7 µM (inactive); GI50 (SK-MEL-5): 16.2 µM (inactive); GI50 (TK-10): 21.3 µM (inactive); GI50 (OVCAR-4): 13.6 µM (inactive); GI50 (MDA-MB-231): 13.3 µM (inactive); GI50 (Malme-3M): 18.3 µM (inactive); GI50 (HT-29): 21.9 µM (inactive); GI50 (HCC 2998): 34 µM (inactive); GI50 (SF-539): 13.2 µM (inactive); GI50 (786-0): 54.1 µM (inactive); GI50 (RXF 393): 12.5 µM (inactive); GI50 (OVCAR-3): 13.1 µM (inactive); GI50 (RPMI-8226): 5.35 µM (inactive); GI50 (SF-268): 19.3 µM (inactive); GI50 (HCT-116): 26.2 µM (inactive); GI50 (Hs-578T): 20.9 µM (inactive); GI50 (HCT-15): 17.9 µM; GI50 (HOP-92): 14 µM (inactive); GI50 (SNB-19): 15.3 µM (inactive); GI50 (SF-295): 14.3 µM (inactive); GI50 (KM12): 13.6 µM (inactive); GI50 (MOLT-4): 2.37 µM (inactive); GI50 (HOP-62): 44.4 µM (inactive); GI50 (MDA-MB-435): 14.4 µM (inactive); GI50 (CCRF-CEM): 16.6 µM (inactive); GI50 (CAKI-1): 22.1 µM (inactive); GI50 (SW-620): 19.8 µM (inactive); GI50 (M14): 31 µM (inactive); GI50 (SN12C): 15.8 µM (inactive); GI50 (IGROV-1): 13.8 µM (inactive); GI50 (MCF7): 15.6 µM (inactive); GI50 (A498): 29.2 µM (inactive); GI50 (OVCAR-5): 0.228 µM (active); GI50 (UACC-62): 15.2 µM (inactive); GI50 (SR): 0.0481 µM (active); GI50 (K562): 14.1 µM (inactive); GI50 (HL-60): 5.98 µM (inactive); GI50 (UACC-257): 16.2 µM (inactive); GI50 (EKVX): 3.71 µM (inactive); GI50 (U-251): 14.5 µM (inactive)
